Assay results from patent US20040137082A1, “Compounds and methods for reducing myostatin concentration” (priority 2003, published 2004).

System: myostatin protein
Experiment: Column chromatography of muscle homogenate over Cystoseira canariensis fractions in place of the heparin column, eluate read by SDS-PAGE and Western blot
Assay type: binding, human
Details: fraction used as column in place of heparin, plus sepharose; crude muscle homogenate
Excerpt: The testing involved the use of column chromatography analysis of Cystoseira canariensis fractions made as described herein. In the initial testing, the method described by Se-Jin-Lee and Alexandra McPherron, “Regulation of Myostatin Activity and Muscle Growth,” Proc. Nat'l Acad. Sci., Vol. 98, No. 16, pp. 9306-9311 (2001) (FIG. 1), was followed. FIG. 2 hereof provides an illustration of the experimental apparatus used. […]
Protein sodium dodecyl sulfate-polyacrylamide gel electrophoresis (“SDS-PAGE”) was performed with gradient gel from 10 to 20% acrylamide concentrations described by Laemmli UK, “Cleavage of Structural Proteins During 15 Assembly of the Head of Bacteriophage T4,” Nature, 227: 680-685 (1970). […] The supernatant fraction of each sample was removed and used to determine protein concentration by measuring absorbance at 280 nanometers (nm). […]
After transfer, membranes were blocked in buffer containing 0.5% Tween-20, 0.2% gelatin, and 3.0% dry milk (blocking buffer) for at least 1 hour at room temperature. […] The relative concentration of myostatin protein in each sample was determined by scanning densitometry. […]

## heparin
  affinity to myostatin (anti-myostatin Western blot of protein eluted from the chromatography column): cross-recognized 36-37 kDa protein
